ChEMBL document CHEMBL2074305, “P-glycoprotein induction in rat liver epithelial cells in response to acute 3-methylcholanthrene treatment” (Biochem Pharmacol, 1996)

Experiments:
[1] = molecular target: Multidrug resistance protein 1a (Rattus norvegicus) (UniProt Q6PSM0); experiment: TP_TRANSPORTER: Northern blot in vitro, nonparenchymal ral liver epithelial cells; type: functional; conditions: Epithelial cell
[2] = molecular target: Multidrug resistance protein 1a (Rattus norvegicus) (UniProt Q6PSM0); experiment: TP_TRANSPORTER: Western in vitro, nonparenchymal rat liver epithelial cells; type: functional, tissue-based; conditions: Epithelial cell
[3] = molecular target: ATP-dependent translocase ABCB1 (Rattus norvegicus, UniProt P43245); experiment: TP_TRANSPORTER: RT-PCR in vitro, nonparenchymal rat liver epithelial cells; type: functional, tissue-based; conditions: epithelial cell
Chain of ATP-dependent translocase ABCB1 (P43245 whole entry): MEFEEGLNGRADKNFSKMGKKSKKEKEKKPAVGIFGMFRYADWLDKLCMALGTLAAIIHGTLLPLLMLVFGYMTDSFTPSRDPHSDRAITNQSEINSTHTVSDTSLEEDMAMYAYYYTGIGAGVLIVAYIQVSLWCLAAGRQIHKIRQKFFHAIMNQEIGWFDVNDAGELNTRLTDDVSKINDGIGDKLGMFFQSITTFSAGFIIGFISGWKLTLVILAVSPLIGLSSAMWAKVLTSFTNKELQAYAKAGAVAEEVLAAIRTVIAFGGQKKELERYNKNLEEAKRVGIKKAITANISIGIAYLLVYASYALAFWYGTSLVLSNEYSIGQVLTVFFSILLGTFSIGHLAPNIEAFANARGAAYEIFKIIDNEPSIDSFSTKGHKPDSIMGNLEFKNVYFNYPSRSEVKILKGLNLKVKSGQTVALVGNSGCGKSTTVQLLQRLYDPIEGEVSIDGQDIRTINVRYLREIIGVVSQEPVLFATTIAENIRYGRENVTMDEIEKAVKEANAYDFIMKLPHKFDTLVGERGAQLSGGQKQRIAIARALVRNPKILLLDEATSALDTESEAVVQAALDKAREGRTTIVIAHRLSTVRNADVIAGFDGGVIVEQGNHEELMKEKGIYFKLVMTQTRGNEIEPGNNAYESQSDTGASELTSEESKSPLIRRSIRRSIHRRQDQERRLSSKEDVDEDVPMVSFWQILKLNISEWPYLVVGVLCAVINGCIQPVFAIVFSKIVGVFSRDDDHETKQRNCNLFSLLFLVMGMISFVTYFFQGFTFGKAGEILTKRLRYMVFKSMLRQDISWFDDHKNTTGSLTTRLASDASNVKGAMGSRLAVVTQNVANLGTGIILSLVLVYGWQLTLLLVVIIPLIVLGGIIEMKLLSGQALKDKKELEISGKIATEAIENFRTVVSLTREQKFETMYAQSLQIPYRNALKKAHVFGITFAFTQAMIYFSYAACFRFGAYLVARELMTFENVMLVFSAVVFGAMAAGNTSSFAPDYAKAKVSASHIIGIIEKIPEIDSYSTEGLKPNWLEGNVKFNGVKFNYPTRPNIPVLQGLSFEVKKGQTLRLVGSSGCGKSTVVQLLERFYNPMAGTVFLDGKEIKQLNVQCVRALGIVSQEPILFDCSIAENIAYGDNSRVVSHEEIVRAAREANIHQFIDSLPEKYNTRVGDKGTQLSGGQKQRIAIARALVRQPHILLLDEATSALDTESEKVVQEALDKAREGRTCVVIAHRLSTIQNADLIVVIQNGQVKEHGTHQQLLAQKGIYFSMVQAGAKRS

Chain of Multidrug resistance protein 1a (Rattus norvegicus) (Q6PSM0 as listed by the source): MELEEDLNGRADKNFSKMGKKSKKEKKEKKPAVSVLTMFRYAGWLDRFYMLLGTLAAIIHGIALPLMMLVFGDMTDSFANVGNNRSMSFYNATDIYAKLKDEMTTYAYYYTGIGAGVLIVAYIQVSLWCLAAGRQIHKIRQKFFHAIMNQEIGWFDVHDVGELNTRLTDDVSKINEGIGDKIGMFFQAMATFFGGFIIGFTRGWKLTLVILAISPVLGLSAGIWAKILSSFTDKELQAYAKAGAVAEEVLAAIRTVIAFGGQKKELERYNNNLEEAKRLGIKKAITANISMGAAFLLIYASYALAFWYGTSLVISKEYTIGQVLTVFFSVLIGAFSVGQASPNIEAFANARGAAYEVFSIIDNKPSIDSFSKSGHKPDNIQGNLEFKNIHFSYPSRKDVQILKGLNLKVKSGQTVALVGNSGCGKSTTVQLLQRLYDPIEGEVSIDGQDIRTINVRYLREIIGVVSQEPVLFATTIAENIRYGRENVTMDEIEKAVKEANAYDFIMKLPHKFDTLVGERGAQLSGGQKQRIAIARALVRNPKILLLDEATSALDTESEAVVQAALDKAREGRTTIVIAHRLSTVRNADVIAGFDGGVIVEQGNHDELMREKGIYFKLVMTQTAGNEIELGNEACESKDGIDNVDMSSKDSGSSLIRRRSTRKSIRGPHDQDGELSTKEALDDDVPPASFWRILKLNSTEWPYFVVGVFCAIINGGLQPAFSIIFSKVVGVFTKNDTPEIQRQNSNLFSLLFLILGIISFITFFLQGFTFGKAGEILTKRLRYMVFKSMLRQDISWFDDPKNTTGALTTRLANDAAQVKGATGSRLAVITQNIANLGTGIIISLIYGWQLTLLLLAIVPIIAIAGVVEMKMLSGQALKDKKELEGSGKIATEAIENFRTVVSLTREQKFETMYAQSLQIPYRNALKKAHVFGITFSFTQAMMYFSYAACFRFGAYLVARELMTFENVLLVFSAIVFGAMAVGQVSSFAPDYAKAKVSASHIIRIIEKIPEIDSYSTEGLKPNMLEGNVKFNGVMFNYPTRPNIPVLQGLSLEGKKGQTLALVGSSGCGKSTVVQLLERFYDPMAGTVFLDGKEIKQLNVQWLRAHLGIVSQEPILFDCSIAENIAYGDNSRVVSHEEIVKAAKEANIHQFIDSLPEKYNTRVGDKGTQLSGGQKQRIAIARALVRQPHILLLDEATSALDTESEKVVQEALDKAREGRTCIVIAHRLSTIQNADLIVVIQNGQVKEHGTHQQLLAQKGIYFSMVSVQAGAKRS

| Structure (SMILES) | Activity [1] | Activity [2] | Activity [3] |
| --- | --- | --- | --- |
| C[C@@H]1C[C@@H]([C@H](O)CC2CC(=O)NC(=O)C2)C(=O)[C@@H](C)C1 | inducer [+] | – | – |
| c1ccc2c(c1)cc1ccc3cccc4ccc2c1c34 | inducer [+] | – | – |
| Cc1ccc2cc3c(ccc4ccccc43)c3c2c1CC3 [3-METHYLCHOLANTHRENE] | – | inducer [+] | inducer [+] |
